Here are results for two compounds from patent US20220370464A1, “COMPOSITIONS AND METHODS OF TREATING OR PREVENTING OCULAR INFECTIONS WITH FILOCICLOVIR” (Microbiotix, Inc., priority 2019, published 2022).

One data set deals with ocular AdV infections. The conditions noted are these: literature, cited from earlier work.
A further data set has as its system AdV 7. Nature of the data set: Antiviral EC50 against AdV 7 (method not given). It counts as cell-based, adenovirus 7. The note with it: Human mastadenovirus B; AdV 7, summary table.
The subject of a further data set is AdV 8. Nature of the data set: Antiviral EC50 against AdV 8 (method not given). The format is cell-based, adenovirus 8. The conditions noted are these: unidentified adenovirus; AdV 8, summary table.
A further data set has as its system Adenovirus 6 (AdV6). As to the kind of experiment: Neutral red survival assay, AdV6 in A549 cells. It counts as cell-based. On the procedure:
(§1) Similar experiments were carried out with filociclovir against adenovirus 6, adenovirus 7, and adenovirus 8.
(§2) The neutral red cell cytotoxicity assay is used to detect cell viability or drug cytotoxicity. The principle of this assay is based on the detection of viable cells via the uptake of the dye neutral red. Neutral red is a eurhodin dye that stains lysosomes in viable cells. Viable cells can take up neutral red via active transport and incorporate the dye into their lysosomes, but non-viable cells cannot not take up this chromophore. Consequently, after washing, viable cells can release the incorporated dye under acidified-extracted conditions. The amount of released dye can be used to determine the total number of viable cells or drug cytotoxicity. As such, cytotoxicity is expressed as a concentration-dependent reduction of the uptake of neutral red after exposure to the compound under investigation.
Neutral red survival assays were carried out in a 96-well format. Briefly, A549 adenocarcinomic human alveolar basal epithelial cells were plated at a concentration of 6×10^3 cells per well one day prior to infection. AdV6 infections were carried out at 5×10^3 PFU per well (an estimated 0.5 PFU/cell at the time of infection). […] Filociclovir plates were read and the results were graphed using GraphPad Prism graphing and statistical software (GraphPad Software, San Diego, Calif.).

Data set [1] in a line: Cytotoxicity, neutral red, uninfected drug control wells of A549 cells. The note with it: human, AdV6 row of Table 2. It counts as cell-based.
Text: as §2
Neutral red survival assays were carried out in a 96-well format. Briefly, A549 adenocarcinomic human alveolar basal epithelial cells were plated at a concentration of 6×10^3 cells per well one day prior to infection. AdV6 infections were carried out at 5×10^3 PFU per well (an estimated 0.5 PFU/cell at the time of infection). Filociclovir was serially diluted 1:3 on separate 96-well plates with a no drug final row as control. […] Filociclovir plates were read and the results were graphed using GraphPad Prism graphing and statistical software (GraphPad Software, San Diego, Calif.).

A further data set deals with AdV7. As to the kind of experiment: CPE reduction assay, adenovirus 7. The format is cell-based. The method, then:
as §1

The subject of the next data set is AdV5. As to the kind of experiment: Immunofluorescence assay of AdV5-infected A549 cells (DBP and hexon staining). The format is cell-based, adenovirus 5. The conditions noted are these: 27 hours post-infection. On the procedure: (§3) Human A549 cells on glass coverslips in 6-well plates were infected at an MOI of 5 PFU/cell with either AdV5 or AdV6 or were mock-infected. After 1 hour, filociclovir was added to a final concentration of 40, 10, 4, or 0 μM. At 27 hours post-infection, the A549 cells were fixed in paraformaldehyde (3.7% in PBS) and permeabilized with methanol. Cells were stained for the Adenovirus DNA-binding protein (DBP; green staining in images) and adenovirus hexon (red staining in images). DBP staining will be […] and uniform during early AdV infection (prior to AdV DNA replication). DBP associates with replication centers as the infection progresses. The replication centers are initially small “dots” (each dot results from one incoming AdV genome). The replication centers will expand and “multiply” as DNA replication takes place. The nuclei become enlarged and misshapen as infection progresses. AdV hexon, the most abundant component of the AdV viral capsid, is not expressed until after DNA replication is taking place and is therefore considered to be a “late” AdV protein.

The subject of the next data set is AdV6. As to the kind of experiment: Immunofluorescence assay of AdV6-infected A549 cells (DBP and hexon staining). It counts as cell-based, adenovirus 6. The note with it: 27 hours post-infection. The method, then: as §3
Data set [2] in a line: Pharmacokinetics in immunosuppressed Syrian hamsters. It counts as in vivo. The conditions noted are these: for detectability after administration (FIG. 5): 6 hours after administration. On the procedure:
In order to test the pharmacokinetics of filociclovir, Syrian hamsters were given either an oral (p.o. 50 mg/kg) or intravenous (i.v. 10 mg/kg) dose of filociclovir.
For i.v. administration, filociclovir was dissolved in DMSO (Sigma D2650) and then diluted with water to a final concentration of 5 mg/ml for filociclovir and 75% DMSO. The dosing solutions were prepared one day before use and stored at 4° C.
Male hamsters were purchased from Envigo (Harlan) at ˜100 g body weight. […] The animals received three injections of CP before the administration of filociclovir. Two groups of animals (12 hamsters/group) were used for the two routes of administrations. In addition, three untreated animals (the same three hamsters for both routes) served as mock controls. The p.o. and i.v. experiments were performed on two consecutive days. As the hamsters weighed approximately 100 g, (+/−10%), they were administered 1 ml and 0.2 ml for the p.o. and i.v. routes, respectively, to achieve the desired dose. For both routes, 3 hamsters were sacrificed at 0.5, 1, 3, and 6 h post dosing.
Plasma and liver samples were collected from all animals and stored at −80° C. until analyzed by LC MS as follows: • All samples and standards were processed on ice; • Standard curve is constructed with authentic compound (fresh powder DMSO reconstitution spiked into “blank” Hamster plasma) and all samples spiked with 500 ng/mL carbamezapine (Internal Standard); • Early time point samples are diluted in “blank” hamster plasma (try to attain concentrations on the standard curve); • Sample extracted with 2× sample volume with 0.1% ammonium formate in methanol (i.e. 30 μL sample+60 μL 0.1% ammonium formate in methanol); • Extracted samples centrifuged on maximum setting in microfuge; • Supernatants are analyzed by LC/MS/MS Dynamic Multiple Reaction Monitoring (DMRM) utilizing custom method.

The subject of a further data set is HHV-6A. The conditions noted are these: β Herpesvirus, cited from earlier work.
A further data set deals with EBV. The note with it: γ Herpesvirus, cited from earlier work.
A further data set concerns VZV. The note with it: α Herpesvirus, cited from earlier work.
In another data set the test system is BK Virus. The note with it: Polyomavirus, cited from earlier work.
A further data set concerns Adenovirus 5 (AdV5). The note with it: AdV 5‡, summary table; cited from earlier work.

Where two headings read alike, the source gives them in different places.

Take `Nc1ccn(C[C@@H](CO)OCP(=O)(O)O)c(=O)n1` [CDV, cidofovir, reference compound]: the ocular toxicity result with ocular AdV infections (even at low doses) was “substantial ocular toxicity”. The “improvement in the symptoms or course of the disease” value in the data set with ocular AdV infections (ocular AdV infections) is “not exhibited a statistically significant improvement”.
As a reminder, the EC50 is the concentration needed to bring the measured effect to its halfway point. Broadly, the CC50 is the concentration that lowers cell viability or growth by half. Consider `Nc1nc2c(ncn2/C=C2/CC2(CO)CO)c(=O)[nH]1` [Filociclovir, 2-amino-9-{(Z)-[2,2-bis(hydroxymethyl)cyclopropylidene]methyl}-3,9-dihydro-6H-purin-6-one], for which the half-maximal effective concentration (EC50) is 1000 nM in the data set with AdV 7; 2000 nM with AdV 8; at most 10000 nM in the data set on HHV-6A (listed as filociclovir); 1300 nM in the data set on HHV-6A; at most 10000 nM in the data set on EBV (listed as filociclovir); 1000 ± 940 nM with EBV. Moreover, the EC50 in the data set on VZV (listed as filociclovir) was at most 10000 nM; with VZV, 1500 ± 1600 nM; in the data set on BK Virus (listed as filociclovir), at most 50 µM; in the data set on BK Virus, 34 ± 17 µM; with Adenovirus 5 (AdV5), 2200 ± 400 nM. Besides, the “concentration effective to improve viability of AdV6 infected cells (FIG. 2)” value in the data set on Adenovirus 6 (AdV6) (A549 cells, 6 days post-infection, 'as low as') was ≥ 10^−1 μM. The CC50/EC50 in the data set with Adenovirus 6 (AdV6) (AdV6) is recorded as 27; in the data set with AdV7, over 144. The CC50 at 6 days in data set [1] was over 100 µM. Moreover, the hexon-positive cells result is on record as “Some hexon-positive cells” in the data set on AdV5 (AdV5, A549, 4 μM); “extremely few hexon-positive cells” with AdV5 (AdV5, A549, 10 μM); “No hexon-positive cells” in the data set with AdV5 (AdV5, A549, 40 μM); “Some hexon-positive cells” in the data set on AdV6 (AdV6, A549, 4 μM); “extremely few hexon-positive cells” in the data set on AdV6 (AdV6, A549, 10 μM); “No hexon-positive cells” in the data set with AdV6 (AdV6, A549, 40 μM). In data set [2] (hamsters), the oral bioavailability entry was “good oral bioavailability”. Further, the “detectability after administration (FIG. 5)” value in data set [2] (i.v. 10 mg/kg) and in data set [2] (p.o. 50 mg/kg) was “still detectable” in each case.
